Reference: publication PMC7827406, “Structure–Activity Relationship (SAR) Study of Spautin-1 to Entail the Discovery of Novel NEK4 Inhibitors” (International Journal of Molecular Sciences, 2021)
Like-named read-outs stand apart in the source and are kept apart here.

What was measured:
Experiment in all cases: biochemical
Parameters in all cases: Eurofins KinaseProfiler full panel at Km ATP, residual kinase activity (%) relative to DMSO
ALK4(h) = biological target: T1, ALK4(h) (Homo sapiens, UniProt P36896)
T1 construct: gene ACVR1B
T1 sequence (P36896 1-505): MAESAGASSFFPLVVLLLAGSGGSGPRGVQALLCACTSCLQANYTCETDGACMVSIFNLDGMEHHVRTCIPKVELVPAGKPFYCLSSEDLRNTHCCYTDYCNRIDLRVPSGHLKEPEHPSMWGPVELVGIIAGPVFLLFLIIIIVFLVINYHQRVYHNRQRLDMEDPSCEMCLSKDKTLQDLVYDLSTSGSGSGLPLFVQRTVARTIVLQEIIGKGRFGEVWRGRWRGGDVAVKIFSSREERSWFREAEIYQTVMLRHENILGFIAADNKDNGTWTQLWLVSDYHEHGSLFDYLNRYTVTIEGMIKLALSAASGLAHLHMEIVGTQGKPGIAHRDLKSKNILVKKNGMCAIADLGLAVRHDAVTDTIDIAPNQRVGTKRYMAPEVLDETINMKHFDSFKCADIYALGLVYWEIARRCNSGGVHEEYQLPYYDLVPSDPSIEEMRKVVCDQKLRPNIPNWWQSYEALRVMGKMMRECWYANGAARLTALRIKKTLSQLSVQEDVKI
Method in brief: (§1)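 Two 10 µM single-concentration screens were run: a competition-binding screen, in which DNA-tagged kinase bound to immobilized ligands was quantified by qPCR, and a radiometric activity panel at Km ATP. Each is expressed as residual kinase activity (%).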

Arg(h) = biological target: T2, Arg(h) (Homo sapiens, UniProt P42684)
T2 construct: gene ABL2
T2 sequence (P42684 whole entry): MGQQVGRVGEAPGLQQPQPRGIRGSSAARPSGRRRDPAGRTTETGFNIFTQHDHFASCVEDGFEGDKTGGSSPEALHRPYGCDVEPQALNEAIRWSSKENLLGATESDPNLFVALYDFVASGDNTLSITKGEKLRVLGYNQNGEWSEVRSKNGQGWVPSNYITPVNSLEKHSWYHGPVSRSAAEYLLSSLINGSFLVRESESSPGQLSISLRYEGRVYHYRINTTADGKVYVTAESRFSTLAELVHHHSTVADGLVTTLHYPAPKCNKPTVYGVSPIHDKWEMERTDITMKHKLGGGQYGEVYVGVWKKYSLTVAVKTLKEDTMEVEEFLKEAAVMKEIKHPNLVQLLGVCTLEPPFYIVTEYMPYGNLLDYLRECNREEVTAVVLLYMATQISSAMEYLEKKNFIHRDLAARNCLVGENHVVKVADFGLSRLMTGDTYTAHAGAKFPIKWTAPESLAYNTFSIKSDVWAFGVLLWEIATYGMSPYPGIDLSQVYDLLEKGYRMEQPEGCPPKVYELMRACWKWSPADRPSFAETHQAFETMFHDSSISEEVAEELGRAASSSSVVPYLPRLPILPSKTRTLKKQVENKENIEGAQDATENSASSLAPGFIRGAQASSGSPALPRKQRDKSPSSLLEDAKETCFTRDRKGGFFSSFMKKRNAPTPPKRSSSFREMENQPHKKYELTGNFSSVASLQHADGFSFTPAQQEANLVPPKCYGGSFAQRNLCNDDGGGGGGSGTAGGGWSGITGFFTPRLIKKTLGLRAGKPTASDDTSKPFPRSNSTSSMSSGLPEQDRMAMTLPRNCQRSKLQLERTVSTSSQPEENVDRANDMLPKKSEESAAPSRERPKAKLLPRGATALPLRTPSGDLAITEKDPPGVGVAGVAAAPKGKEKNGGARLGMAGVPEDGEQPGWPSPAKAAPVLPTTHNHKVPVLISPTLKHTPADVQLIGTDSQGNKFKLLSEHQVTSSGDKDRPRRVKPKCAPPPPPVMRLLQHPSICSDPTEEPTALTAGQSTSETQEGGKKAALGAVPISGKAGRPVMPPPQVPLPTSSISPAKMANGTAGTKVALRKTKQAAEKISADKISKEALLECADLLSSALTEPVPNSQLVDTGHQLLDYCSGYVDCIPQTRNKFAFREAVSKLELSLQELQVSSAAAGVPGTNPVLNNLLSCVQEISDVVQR
Method in brief: as §1

Aurora-B(h) = biological target: T3, Aurora-B(h) (Homo sapiens, UniProt Q96GD4)
T3 construct: gene AURKB
T3 sequence (Q96GD4 whole entry): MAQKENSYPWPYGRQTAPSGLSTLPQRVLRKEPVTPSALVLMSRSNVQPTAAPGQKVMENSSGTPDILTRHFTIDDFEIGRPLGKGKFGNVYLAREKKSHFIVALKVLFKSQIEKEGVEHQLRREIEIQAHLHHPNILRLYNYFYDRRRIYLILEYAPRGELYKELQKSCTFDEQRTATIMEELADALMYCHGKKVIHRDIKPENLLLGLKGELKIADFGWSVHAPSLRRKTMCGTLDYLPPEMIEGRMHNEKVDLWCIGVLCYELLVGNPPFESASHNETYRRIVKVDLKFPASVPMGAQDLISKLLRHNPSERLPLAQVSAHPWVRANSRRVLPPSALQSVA
Method in brief: as §1

CDK7/cyclinH/MAT1(h) = CDK7/cyclinH/MAT1(h) (Homo sapiens, UniProt P50613)
Chain of CDK7/cyclinH/MAT1(h) (P50613 whole entry): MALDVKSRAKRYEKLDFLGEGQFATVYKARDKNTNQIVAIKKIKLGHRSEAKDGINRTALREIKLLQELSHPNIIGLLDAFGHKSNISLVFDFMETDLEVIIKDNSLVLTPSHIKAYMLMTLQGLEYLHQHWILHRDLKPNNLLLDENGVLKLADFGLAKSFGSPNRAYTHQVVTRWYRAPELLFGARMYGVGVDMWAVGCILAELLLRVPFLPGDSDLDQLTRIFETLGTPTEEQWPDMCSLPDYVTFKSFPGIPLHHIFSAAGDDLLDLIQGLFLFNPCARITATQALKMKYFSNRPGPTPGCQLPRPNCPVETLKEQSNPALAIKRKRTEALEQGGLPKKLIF
Chain of CDK7/cyclinH/MAT1(h) (P51946 whole entry partner): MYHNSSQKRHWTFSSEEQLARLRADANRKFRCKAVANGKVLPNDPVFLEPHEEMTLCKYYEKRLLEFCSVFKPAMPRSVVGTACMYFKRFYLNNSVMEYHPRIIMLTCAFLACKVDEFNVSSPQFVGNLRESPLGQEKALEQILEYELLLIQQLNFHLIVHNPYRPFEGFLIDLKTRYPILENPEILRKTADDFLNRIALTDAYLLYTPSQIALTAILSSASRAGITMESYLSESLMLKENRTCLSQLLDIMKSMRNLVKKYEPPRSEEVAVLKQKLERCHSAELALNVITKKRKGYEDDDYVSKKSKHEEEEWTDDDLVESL
Chain of CDK7/cyclinH/MAT1(h) (P51948 whole entry partner): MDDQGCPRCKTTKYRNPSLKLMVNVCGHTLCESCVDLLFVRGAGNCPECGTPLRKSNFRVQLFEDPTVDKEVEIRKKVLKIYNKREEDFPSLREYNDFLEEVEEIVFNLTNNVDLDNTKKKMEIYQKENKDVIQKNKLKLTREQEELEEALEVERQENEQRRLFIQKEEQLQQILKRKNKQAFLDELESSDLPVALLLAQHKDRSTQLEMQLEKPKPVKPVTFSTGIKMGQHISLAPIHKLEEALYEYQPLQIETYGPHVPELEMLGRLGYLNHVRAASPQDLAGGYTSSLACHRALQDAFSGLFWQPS
Method in brief: as §1

DRAK1(h) = biological target: T4, DRAK1(h) (Homo sapiens, UniProt Q9UEE5)
T4 construct: gene STK17A
T4 sequence (Q9UEE5 1-414): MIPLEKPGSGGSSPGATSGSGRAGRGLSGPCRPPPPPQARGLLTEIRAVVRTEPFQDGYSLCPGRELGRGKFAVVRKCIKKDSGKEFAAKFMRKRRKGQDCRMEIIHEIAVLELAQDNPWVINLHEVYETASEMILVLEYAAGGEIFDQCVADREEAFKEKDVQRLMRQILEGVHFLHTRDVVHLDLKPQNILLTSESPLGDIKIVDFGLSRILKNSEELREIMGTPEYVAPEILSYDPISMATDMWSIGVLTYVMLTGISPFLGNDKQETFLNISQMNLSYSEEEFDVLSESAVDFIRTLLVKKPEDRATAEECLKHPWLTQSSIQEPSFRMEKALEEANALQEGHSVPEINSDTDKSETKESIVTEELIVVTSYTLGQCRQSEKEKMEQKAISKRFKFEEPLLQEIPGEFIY
Method in brief: as §1

NEK9(h) = biological target: T5, NEK9(h) (Homo sapiens, UniProt Q8TD19)
T5 sequence (Q8TD19 1-979): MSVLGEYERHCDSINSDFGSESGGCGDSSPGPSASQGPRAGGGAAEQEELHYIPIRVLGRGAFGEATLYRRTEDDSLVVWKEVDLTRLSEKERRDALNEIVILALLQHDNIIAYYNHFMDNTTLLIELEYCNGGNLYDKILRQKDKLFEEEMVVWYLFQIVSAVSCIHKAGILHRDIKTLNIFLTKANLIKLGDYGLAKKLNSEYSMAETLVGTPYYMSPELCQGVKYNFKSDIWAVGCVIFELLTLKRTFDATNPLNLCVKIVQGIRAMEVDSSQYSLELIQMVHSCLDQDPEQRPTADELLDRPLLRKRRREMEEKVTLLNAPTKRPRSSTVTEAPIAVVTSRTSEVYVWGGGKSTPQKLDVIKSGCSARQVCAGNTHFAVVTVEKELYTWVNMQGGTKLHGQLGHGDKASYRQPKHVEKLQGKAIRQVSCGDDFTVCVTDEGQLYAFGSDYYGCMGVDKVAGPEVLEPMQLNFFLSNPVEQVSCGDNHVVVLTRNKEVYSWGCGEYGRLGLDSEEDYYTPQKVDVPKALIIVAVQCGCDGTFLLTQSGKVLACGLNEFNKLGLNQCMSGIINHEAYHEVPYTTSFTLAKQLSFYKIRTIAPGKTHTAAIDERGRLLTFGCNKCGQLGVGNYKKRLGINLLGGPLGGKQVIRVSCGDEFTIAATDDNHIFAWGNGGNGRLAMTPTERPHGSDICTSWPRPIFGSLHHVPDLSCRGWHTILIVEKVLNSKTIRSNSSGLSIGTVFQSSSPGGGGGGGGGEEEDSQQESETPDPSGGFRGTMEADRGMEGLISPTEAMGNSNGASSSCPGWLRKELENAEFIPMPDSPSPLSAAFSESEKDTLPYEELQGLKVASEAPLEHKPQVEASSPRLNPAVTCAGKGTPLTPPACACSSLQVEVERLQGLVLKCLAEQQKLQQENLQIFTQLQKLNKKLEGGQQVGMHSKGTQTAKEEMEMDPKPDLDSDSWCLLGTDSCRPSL
Method in brief: as §1

Ron(h) = biological target: T6, Ron(h) (Homo sapiens, UniProt Q04912)
T6 construct: gene MST1R
T6 sequence (Q04912 whole entry): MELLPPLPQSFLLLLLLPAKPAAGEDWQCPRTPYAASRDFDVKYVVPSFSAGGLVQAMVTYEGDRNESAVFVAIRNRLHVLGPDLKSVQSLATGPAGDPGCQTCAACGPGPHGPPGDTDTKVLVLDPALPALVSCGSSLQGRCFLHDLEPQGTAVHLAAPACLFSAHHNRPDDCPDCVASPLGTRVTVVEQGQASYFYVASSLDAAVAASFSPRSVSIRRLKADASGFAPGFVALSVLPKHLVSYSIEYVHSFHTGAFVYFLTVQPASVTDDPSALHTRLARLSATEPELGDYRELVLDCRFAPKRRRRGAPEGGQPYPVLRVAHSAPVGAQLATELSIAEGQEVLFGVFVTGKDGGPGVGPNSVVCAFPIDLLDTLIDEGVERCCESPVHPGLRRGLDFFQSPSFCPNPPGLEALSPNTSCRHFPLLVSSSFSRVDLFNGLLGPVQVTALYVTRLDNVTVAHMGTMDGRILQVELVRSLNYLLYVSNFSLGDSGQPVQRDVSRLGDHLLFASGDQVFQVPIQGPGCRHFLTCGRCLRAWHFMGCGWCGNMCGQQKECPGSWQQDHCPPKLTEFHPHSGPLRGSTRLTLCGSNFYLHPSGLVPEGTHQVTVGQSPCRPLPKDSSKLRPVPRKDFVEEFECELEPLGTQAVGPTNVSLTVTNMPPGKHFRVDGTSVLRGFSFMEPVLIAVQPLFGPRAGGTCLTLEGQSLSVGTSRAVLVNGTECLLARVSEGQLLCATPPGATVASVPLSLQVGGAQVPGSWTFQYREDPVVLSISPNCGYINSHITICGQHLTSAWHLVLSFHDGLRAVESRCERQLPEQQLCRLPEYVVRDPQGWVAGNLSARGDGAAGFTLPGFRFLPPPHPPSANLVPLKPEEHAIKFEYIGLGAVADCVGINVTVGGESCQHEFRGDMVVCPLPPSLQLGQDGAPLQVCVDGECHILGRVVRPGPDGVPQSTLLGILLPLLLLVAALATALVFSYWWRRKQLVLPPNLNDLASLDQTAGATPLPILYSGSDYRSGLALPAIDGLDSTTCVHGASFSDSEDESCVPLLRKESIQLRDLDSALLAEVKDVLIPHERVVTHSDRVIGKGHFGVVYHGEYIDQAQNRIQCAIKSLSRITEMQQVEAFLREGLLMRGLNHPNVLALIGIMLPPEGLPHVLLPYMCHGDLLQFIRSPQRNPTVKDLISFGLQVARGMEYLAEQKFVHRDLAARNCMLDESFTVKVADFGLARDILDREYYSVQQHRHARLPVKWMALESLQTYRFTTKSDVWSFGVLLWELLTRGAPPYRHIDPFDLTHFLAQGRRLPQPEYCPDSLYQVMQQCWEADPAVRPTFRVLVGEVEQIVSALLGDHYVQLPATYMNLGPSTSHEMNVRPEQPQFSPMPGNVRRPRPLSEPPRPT
Method in brief: as §1

[1] = read-out: Residual activity (%) Spautin-1 5aa
[2] = read-out: Residual activity (%) 5as
[3] = read-out: Residual activity (%) 5at
[4] = read-out: Residual activity (%) 5ay

`Fc1ccc(CNc2ncnc3ccc(F)cc23)cc1` [5aa, 6-Fluoro-N-(4-fluorobenzyl)-4-Quinazolinamine] was tested, and the remaining activity at 10 µM (ALK4(h); [1]) was 121%, the remaining activity at 10 µM (Arg(h); [1]) was 79% and the remaining activity at 10 µM (Aurora-B(h); [1]) was 85%. The remaining activity at 10 µM (CDK7/cyclinH/MAT1(h); [1]) was 62%, the remaining activity at 10 µM (DRAK1(h); [1]) was 98% and the remaining activity at 10 µM (NEK9(h); [1]) was 98%. The remaining activity at 10 µM (Ron(h); [1]) was 98%.

With `Fc1ccc(CCNc2ncnc3ccc(F)cc23)cc1` [5as, 6-Fluoro-N-[2-(4-Fluorophenyl)Ethyl]-4-Quinazolinamine] the remaining activity at 10 µM (ALK4(h); [2]) was 84%, the remaining activity at 10 µM (Arg(h); [2]) was 82% and the remaining activity at 10 µM (Aurora-B(h); [2]) was 69%. It also gave a remaining activity at 10 µM (CDK7/cyclinH/MAT1(h); [2]) of 49%, a remaining activity at 10 µM (DRAK1(h); [2]) of 79% and a remaining activity at 10 µM (NEK9(h); [2]) of 103%. It also gave a remaining activity at 10 µM (Ron(h); [2]) of 109%.

In the case of `Fc1ccc2ncnc(NCCc3ccc(Cl)cc3)c2c1` [5at, N-[2-(4-Chlorophenyl)Ethyl]-6-Fluoro-4-Quinazolinamine], the remaining activity at 10 µM (ALK4(h); [3]) is reported as 61%, the remaining activity at 10 µM (Arg(h); [3]) is reported as 81% and the remaining activity at 10 µM (Aurora-B(h); [3]) is reported as 48%. The remaining activity at 10 µM (CDK7/cyclinH/MAT1(h); [3]) was 59%, the remaining activity at 10 µM (DRAK1(h); [3]) was 85% and the remaining activity at 10 µM (NEK9(h); [3]) was 92%. It also gave a remaining activity at 10 µM (Ron(h); [3]) of 101%.

Molecule `COc1ccc2ncnc(Nc3cccc(F)c3)c2c1` [5ay, N-(3-Fluorophenyl)-6-Methoxy-4-Quinazolinamine] has a remaining activity at 10 µM (ALK4(h); [4]) of 73%, a remaining activity at 10 µM (Arg(h); [4]) of 73% and a remaining activity at 10 µM (Aurora-B(h); [4]) of 59%. It also gave a remaining activity at 10 µM (CDK7/cyclinH/MAT1(h); [4]) of 58%, a remaining activity at 10 µM (DRAK1(h); [4]) of 57% and a remaining activity at 10 µM (NEK9(h); [4]) of 92%. It also gave a remaining activity at 10 µM (Ron(h); [4]) of 88%.
